Data from patent US20120059162A1, “FUSED IMIDAZOLE DERIVATIVE HAVING TTK INHIBITORY ACTION” (Oncotherapy Science, Inc., priority 2009, published 2012).

Key:
TTK = biological target: T1, TTK (Homo sapiens, UniProt P33981); assay: TTK assay: screening of TTK kinase activity suppressing action using p38 MAPK peptide; assay type: biochemical; settings: p38 MAPK peptide substrate; read-out: TTK IC50
T1 sequence (P33981 1-857): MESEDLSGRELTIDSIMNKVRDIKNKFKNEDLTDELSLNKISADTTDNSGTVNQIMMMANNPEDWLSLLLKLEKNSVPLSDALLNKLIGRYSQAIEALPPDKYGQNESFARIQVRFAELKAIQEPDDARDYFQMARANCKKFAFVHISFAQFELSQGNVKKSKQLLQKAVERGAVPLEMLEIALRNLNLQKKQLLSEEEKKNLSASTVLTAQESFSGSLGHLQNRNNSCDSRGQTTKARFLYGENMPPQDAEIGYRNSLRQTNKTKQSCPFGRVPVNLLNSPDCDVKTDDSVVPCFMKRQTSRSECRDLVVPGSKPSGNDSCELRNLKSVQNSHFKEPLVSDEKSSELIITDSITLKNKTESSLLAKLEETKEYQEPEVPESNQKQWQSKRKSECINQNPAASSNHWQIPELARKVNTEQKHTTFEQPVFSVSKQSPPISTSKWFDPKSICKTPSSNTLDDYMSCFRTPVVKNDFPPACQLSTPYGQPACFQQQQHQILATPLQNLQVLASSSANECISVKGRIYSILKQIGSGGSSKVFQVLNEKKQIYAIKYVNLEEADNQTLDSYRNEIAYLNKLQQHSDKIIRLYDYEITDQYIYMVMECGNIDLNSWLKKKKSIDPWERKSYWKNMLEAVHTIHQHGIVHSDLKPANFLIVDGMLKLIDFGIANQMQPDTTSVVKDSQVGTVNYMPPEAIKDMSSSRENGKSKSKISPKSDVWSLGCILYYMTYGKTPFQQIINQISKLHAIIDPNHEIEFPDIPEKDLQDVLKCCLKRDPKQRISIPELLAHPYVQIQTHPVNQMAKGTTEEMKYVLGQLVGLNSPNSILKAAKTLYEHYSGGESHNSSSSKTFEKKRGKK
Protocol: Screening of a compound having a TTK kinase activity suppressing action using p38 MAPK peptide
A test substance 1.0 μL (solvent: 10% (v/v) DMSO), TTK solution 5 μL (composition: 4 μg/ml TTK, 25 mM Tris-HCl, pH7.5, 5 mM β-glycerophosphate, 2 mM DTT, 0.1 mM Na3VO4, 5 mM MgCl2, 0.1% (w/v)BSA) and a substrate solution 5 μL (composition: 60 μM p38 MAPK peptide, 60 μM ATP, 25 mM Tris-HCl, pH7.5, 5 mM β-glycerophosphate, 2 mM DTT, 0.1 mM Na3VO4, 5 mM MgCl2, 0.1% (w/v)BSA) were mixed in the wells of a 384-well microtiter plate (manufactured by Corning Incorporated) made of polypropylene and loaded in a constant temperature and humidity room.
From the resultant mixture, an aliquot of 1.7 μL was taken out and mixed with the reaction terminating solution (60 μl) in the wells of a 384-well microtiter plate (manufactured by Corning Incorporated) made of polypropylene. Thereafter, 40 μL of the mixture was transferred to a 384-well black NeutrAvidin plate (PIERCE), sealed and incubated under room temperature for 30 minutes. […] Similarly, the plate was washed with TTBS (100 μL) three times, 40 μl of a secondary antibody solution (Eu-N1 labeled Anti-mouse IgG (Perkin Elmer, #AD0124)) was added and incubated under room temperature for 30 minutes. After the plate was washed with TTBS (100 μL) five times, 40 μL of an enhance solution (Perkin Elmer) was added and incubated under room temperature for 5 minutes. […] Based on the fluorescence value in the absence of a test substance, the suppression activity of a test substance was measured.

A549 = A549 assay: screening of cancer cell growth inhibiting compound; assay type: cell-based; settings: Homo sapiens, 72 h; A549 cells, three days, WST-8; read-out: A549 IC50
Protocol: Screening of Cancer Cell Growth Inhibiting Compound
A cell suspension solution (RERF-LC-AI, A549: 1×10^4/ml, MRC5: 3×10^4/ml and 1×10^5/ml) adjusted to an appropriate concentration with D-MEM (hereinafter, referred to as a culture solution and manufactured by Nacalai Tesque Inc.) supplemented with 10% FBS (HyClone) was added to the wells of a 96-well plate (hereinafter, well plate) at a rate of 100 μL/well and incubated in a CO2 incubator at 37° C. for a day. […] Next, cells were added to each well of the well plate prepared and the above compound dilution solution was added at a rate of 100 μL/well to obtain 200 μL/well. Thereafter, the cells were incubated in the CO2 incubator at 37° C. for further three days. To each well of the well plate, 10 μL of a WST-8 kit (Kishida Chemical Co., Ltd.) solution for counting the number of cells was added and a color reaction was performed in the CO2 incubator for 1 to 4 hours. After the absorbance at 450 nm (reference wavelength: 620 nm) was measured by a microplate reader, suppressing action of the test substance was calculated based on the absorbance value in the absence of a test substance.

| IC50 (TTK) | IC50 (A549) | SMILES |
| --- | --- | --- |
| 8.9 nM | 50 to 500 nM | COC1CCN(c2cc(NCC3CCOCC3)c3ncc(-c4ccc(C(=O)NC5CC5)cc4)n3n2)CC1 [Example 2-26] |
| 6 nM | 50 to 500 nM | CCN(c1cc(NCC2CCOCC2)c2ncc(-c3ccc(C(=O)NC4CC4)cc3)n2n1)C1CCCC1 [Example 2-27] |
| 3.7 nM | 50 to 500 nM | CN(c1cc(NCC2CCOCC2)c2ncc(-c3ccc(C(=O)NC4CC4)cc3)n2n1)C1CCCC1 [Example 2-28] |
| 6.2 nM | 50 to 500 nM | COCCN(c1cc(NCC2CCOCC2)c2ncc(-c3ccc(C(=O)NC4CC4)cc3)n2n1)C1CCCC1 [Example 2-29] |
| 11.9 nM | 50 to 500 nM | O=C(NC1CC1)c1ccc(-c2cnc3c(NCC4CCOCC4)cc(NCC(F)(F)F)nn23)cc1 [Example 2-30] |
| 3.9 nM | 50 to 500 nM | CC(C)CN(CC(F)(F)F)c1cc(NCC2CCOCC2)c2ncc(-c3ccc(C(=O)NC4CC4)cc3)n2n1 [Example 2-32] |
| 5.4 nM | 500 to 1000 nM | CC(C)CN(CC1CC1)c1cc(NCC2CCOCC2)c2ncc(-c3ccc(C(=O)NC4CC4)cc3)n2n1 [Example 2-33] |
| 3.7 nM | 50 to 500 nM | O=C(NC1CC1)c1ccc(-c2cnc3c(NCC4CCOCC4)cc(Nc4ccccc4O)nn23)cc1 [Example 2-34] |
| 19.3 nM | 1000 to 10000 nM | O=C(NC1CC1)c1ccc(-c2cnc3c(NCC4CCOCC4)cc(Nc4ncccc4O)nn23)cc1 [Example 2-35] |
| 44.2 nM | 1000 to 10000 nM | O=C(NC1CC1)c1ccc(-c2cnc3c(NCC4CCOCC4)cc(NC(=O)C4CCCCC4)nn23)cc1 [Example 2-36] |
| 2.7 nM | ≤ 50 nM | O=C(NC1CC1)c1ccc(-c2cnc3c(NCC4CCOCC4)cc(NC45CC6CC(CC4C6)C5)nn23)cc1 [Example 2-37] |
| 4.5 nM | ≤ 50 nM | O=C(NC1CC1)c1ccc(-c2cnc3c(NCC4CCOCC4)cc(NC4CC5CCCC(C5)C4)nn23)cc1 (stereo not shown) [Example 2-38] |
| 22 nM | 50 to 500 nM | O=C(NC1CC1)c1ccc(-c2cnc3c(NCC4CCOCC4)cc(N4CCCC4=O)nn23)cc1 [Example 2-39] |
| 7.5 nM | 50 to 500 nM | O=C(NC1CC1)c1ccc(-c2cnc3c(NCC4CCOCC4)cc(N4CCCCS4(=O)=O)nn23)cc1 [Example 2-40] |
| 10.1 nM | 50 to 500 nM | C[C@@H]1CN(c2cc(NCC3CCOCC3)c3ncc(-c4ccc(C(=O)NC5CC5)cc4)n3n2)C[C@H](C)O1 [Example 2-41] |
| 12.5 nM | 500 to 1000 nM | O=C(NC1CC1)c1ccc(-c2cnc3c(NCC4CCOCC4)cc(N[C@H]4CC[C@H](O)CC4)nn23)cc1 [Example 2-43] |
| 3.1 nM | 50 to 500 nM | O=C(NC1CC1)c1ccc(-c2cnc3c(NCC4CCOCC4)cc(N4CCN(C(=O)C5CC5)CC4)nn23)cc1 [Example 2-47] |
| 13.9 nM | 1000 to 10000 nM | CC(=O)NCC1CN(c2cc(NCC3CCOCC3)c3ncc(-c4ccc(C(=O)NC5CC5)cc4)n3n2)CCO1 (stereo not shown) [Example 2-48] |
| 17.8 nM | 500 to 1000 nM | O=C(NC1CC1)c1ccc(-c2cnc3c(NCC4CCOCC4)cc(N4CCOC(CO)C4)nn23)cc1 (stereo not shown) [Example 2-49] |
| 13.4 nM | 50 to 500 nM | O=C(NC1CC1)c1ccc(-c2cnc3c(NCC4CCOCC4)cc(N4CCC(C(F)(F)F)CC4)nn23)cc1 [Example 2-51] |
| 17.8 nM | 50 to 500 nM | COCC(C)Nc1cc(NCC2CCOCC2)c2ncc(-c3ccc(C(=O)NC4CC4)cc3)n2n1 (stereo not shown) [Example 2-52] |

| IC50 (TTK) | IC50 (A549) | SMILES |
| --- | --- | --- |
| 25.9 nM | 1000 to 10000 nM | O=C(NC1CC1)c1ccc(-c2cnc3c(NCC4CCOCC4)cc(N4CCCC4)nn23)cc1 [Example 2-53] |
| 7.4 nM | 50 to 500 nM | O=C(NC1CC1)c1ccc(-c2cnc3c(NCC4CCOCC4)cc(NC4CC=CC4)nn23)cc1 [Example 2-54] |
| 4.9 nM | 50 to 500 nM | CC(C)C(C)Nc1cc(NCC2CCOCC2)c2ncc(-c3ccc(C(=O)NC4CC4)cc3)n2n1 (stereo not shown) [Example 2-55] |
| 4.5 nM | 50 to 500 nM | CC(C)(C)CNc1cc(NCC2CCOCC2)c2ncc(-c3ccc(C(=O)NC4CC4)cc3)n2n1 [Example 2-57] |
| 5.5 nM | 50 to 500 nM | CCCC(C)Nc1cc(NCC2CCOCC2)c2ncc(-c3ccc(C(=O)NC4CC4)cc3)n2n1 (stereo not shown) [Example 2-58] |
| 5.2 nM | 50 to 500 nM | CCC(C)CNc1cc(NCC2CCOCC2)c2ncc(-c3ccc(C(=O)NC4CC4)cc3)n2n1 (stereo not shown) [Example 2-59] |
| 4.6 nM | ≤ 50 nM | CC(Nc1cc(NCC2CCOCC2)c2ncc(-c3ccc(C(=O)NC4CC4)cc3)n2n1)C(C)(C)C (stereo not shown) [Example 2-60] |
| 5.1 nM | ≤ 50 nM | CC(Nc1cc(NCC2CCOCC2)c2ncc(-c3ccc(C(=O)NC4CC4)cc3)n2n1)C(F)(F)F (stereo not shown) [Example 2-61] |
| 8.7 nM | 50 to 500 nM | O=C(NC1CC1)c1ccc(-c2cnc3c(NCC4CCOCC4)cc(N4CCCC4CO)nn23)cc1 (stereo not shown) [Example 2-62] |
| 2.9 nM | ≤ 50 nM | CC1CCCCC1Nc1cc(NCC2CCOCC2)c2ncc(-c3ccc(C(=O)NC4CC4)cc3)n2n1 (stereo not shown) [Example 2-63] |
| 1.9 nM | ≤ 50 nM | O=C(NC1CC1)c1ccc(-c2cnc3c(NCC4CCOCC4)cc(NC45CC6CC(CC(C6)C4)C5)nn23)cc1 [Example 2-64] |
| 4.5 nM | 50 to 500 nM | COC[C@@H]1CCCN1c1cc(NCC2CCOCC2)c2ncc(-c3ccc(C(=O)NC4CC4)cc3)n2n1 [Example 2-66] |
| 3.7 nM | 50 to 500 nM | O=C(NC1CC1)c1ccc(-c2cnc3c(NCC4CCOCC4)cc(NC4CCC(F)(F)CC4)nn23)cc1 [Example 2-67] |
| 2.9 nM | ≤ 50 nM | CCC(C)(C)Nc1cc(NCC2CCOCC2)c2ncc(-c3ccc(C(=O)NC4CC4)cc3)n2n1 [Example 2-68] |
| 4.5 nM | 50 to 500 nM | O=C(NC1CC1)c1ccc(-c2cnc3c(NCC4CCOCC4)cc(NC4CCCCC4O)nn23)cc1 (stereo not shown) [Example 2-70] |
| 9.4 nM | 1000 to 10000 nM | NC1CCCCC1Nc1cc(NCC2CCOCC2)c2ncc(-c3ccc(C(=O)NC4CC4)cc3)n2n1 (stereo not shown) [Example 2-71] |
| 3.9 nM | 50 to 500 nM | CC1(Nc2cc(NCC3CCOCC3)c3ncc(-c4ccc(C(=O)NC5CC5)cc4)n3n2)CCS(=O)(=O)C1 (stereo not shown) [Example 2-72] |
| 3.5 nM | 50 to 500 nM | O=C(NC1CC1)c1ccc(-c2cnc3c(NCC4CCOCC4)cc(NC4C5CC6CC(C5)CC4C6)nn23)cc1 (stereo not shown) [Example 2-73] |
| 2.6 nM | ≤ 50 nM | CC1(Nc2cc(NCC3CCOCC3)c3ncc(-c4ccc(C(=O)NC5CC5)cc4)n3n2)CCCCC1 [Example 2-74] |
| 3.6 nM | ≤ 50 nM | CC1(Nc2cc(NCC3CCOCC3)c3ncc(-c4ccc(C(=O)NC5CC5)cc4)n3n2)CCCC1 [Example 2-75] |
